Assays:
[1] = Particle size and polydispersity index of nanoparticle compositions (Zetasizer Nano ZS); assay type: physicochemical; conditions: for PDI: nanoparticle composition 50:10:38.5:1.5 mol % (Table 1A)
Source text: Nanoparticle compositions may be characterized by a variety of methods. For example, microscopy (e.g., transmission electron microscopy or scanning electron microscopy) may be used to examine the morphology and size distribution of a nanoparticle composition. Dynamic light scattering or potentiometry (e.g., potentiometric titrations) may be used to measure zeta potentials. Dynamic light scattering may also be utilized to determine particle sizes. Instruments such as the Zetasizer Nano ZS (Malvern Instruments Ltd, Malvern, Worcestershire, UK) may also be used to measure multiple characteristics of a nanoparticle composition, such as particle size, polydispersity index, and zeta potential.
A Zetasizer Nano ZS (Malvern Instruments Ltd, Malvern, Worcestershire, UK) can be used to determine the particle size, the polydispersity index (PDI) and the zeta potential of the nanoparticle compositions in 1×PBS in determining particle size and 15 mM PBS in determining zeta potential.
(§1) Initial studies were performed to compare the delivery efficiency of nanoparticle compositions including various compounds according to Formula (I), (IA), (II), (IIa), (IIb), (IIc), (IId) or (IIe). The cationic lipid MC3 is a current standard in the art. Accordingly, the standard MC3 formulation including about 50 mol % MC3, about 10 mol % DSPC, about 38.5 mol % cholesterol, and about 1.5 mol % PEG-DMG was used as a basis for this study. Nanoparticle compositions including DSPC as a phospholipid, cholesterol as a structural lipid, PEG-DMG as a PEG lipid, an RNA, and a compound according to Formula (I), (IA), (II), (IIa), (IIb), (IIc), (IId) or (IIe) selected from Compounds 1-159, 168-170, and 173-175 were prepared according to or via methods similar to those described in Examples 1 and 2. The ratios of the lipids were 50:10:38.5:1.5 mol % for the lipid according to Formula (I), (IA), (II), (IIa), (IIb), (IIc), (IId) or (IIe):DSPC:cholesterol:PEG-DMG. The RNA used was an mRNA encoding G5 luciferase (Luc) or G5 hEPO. Tables 1A-1B summarize the content and characteristics of the formulations. […]

[2] = Encapsulation of RNA by the nanoparticle composition (QUANT-IT RIBOGREEN RNA assay); assay type: physicochemical
Source text: The efficiency of encapsulation of a therapeutic and/or prophylactic describes the amount of therapeutic and/or prophylactic that is encapsulated or otherwise associated with a nanoparticle composition after preparation, relative to the initial amount provided. The encapsulation efficiency is desirably high (e.g., close to 100%). The encapsulation efficiency may be measured, for example, by comparing the amount of therapeutic and/or prophylactic in a solution containing the nanoparticle composition before and after breaking up the nanoparticle composition with one or more organic solvents or detergents. Fluorescence may be used to measure the amount of free therapeutic and/or prophylactic (e.g., RNA) in a solution. For the nanoparticle compositions described herein, the encapsulation efficiency of a therapeutic and/or prophylactic may be at least 50%, for example 50%, 55%, 60%, 65%, 70%, 75%, 80%, 85%, 90%, 91%, 92%, 93%, 94%, 95%, 96%, 97%, 98%, 99%, or 100%. In some embodiments, the encapsulation efficiency may be at least 80%. In certain embodiments, the encapsulation efficiency may be at least 90%.
For nanoparticle compositions including an RNA, a QUANT-IT™ RIBOGREEN® RNA assay (Invitrogen Corporation Carlsbad, CA) can be used to evaluate the encapsulation of an RNA by the nanoparticle composition. The samples are diluted to a concentration of approximately […] in a TE buffer solution (10 mM Tris-HCl, 1 mM EDTA, pH 7.5). 50 μL of the diluted samples are transferred to a polystyrene 96 well plate and either 50 μL of TE buffer or 50 μL of a 2% Triton X-100 solution is added to the wells. The plate is incubated at a temperature of 37° C. for 15 minutes. The RIBOGREEN® reagent is diluted 1:100 in TE buffer, and 100 μL of this solution is added to each well. The fluorescence intensity can be measured using a fluorescence plate reader (Wallac Victor 1420 Multilablel Counter; Perkin Elmer, Waltham, MA) at an excitation wavelength of, for example, about 480 nm and an emission wavelength of, for example, about 520 nm. The fluorescence values of the reagent blank are subtracted from that of each of the samples and the percentage of free RNA is determined by dividing the fluorescence intensity of the intact sample (without addition of Triton X-100) by the fluorescence value of the disrupted sample (caused by the addition of Triton X-100).
as §1

mice [3] = assay: Cytokine induction (IL-6, IP-10) in mice after intravenous administration; assay type: in vivo; parameters: IL-6 / IP-10: unit not given here; conditions: 0.5 mpk; for IL-6 / IP-10: 6 hours
Source text: The introduction of foreign material into a mammalian body induces an innate immune response that promotes cytokine production. Such immune responses to, for example, nanoparticle compositions including therapeutic and/or prophylactics, are undesirable. The induction of certain cytokines is thus measured to evaluate the […] of nanoparticle compositions. The concentrations of various cytokines in mice upon intravenous administration of nanoparticle compositions presented in Table 1A at a dosage of 0.5 mpk was measured at 6 hours. The standard MC3 formulation and a PBS control were also tested. As is evident in Table 7, IL-6 induction was highest for compositions including Compounds 1, 3, 9, 19, and 26, while IP-10 induction was highest for compositions including Compounds 3, 4, 7, 20, and 26. IL-6 induction was lowest for compositions including Compounds 4, 11, 12, and 28. IP-10 induction was lowest for compositions including Compounds 10, 11, 12, 13, 15, 17, and 18.
(§2) The expression of hEPO and cytokine induction in mice intravenously administered a nanoparticle composition at a dose of 0.5 mpk were measured at 3, 6, and 24 hours. […] The expression of hEPO in mice intramuscularly administered a nanoparticle composition from Table 1B at a dose of 0.01 mpk were measured at 3, 6, and 24 hours. […] (see also FIG. 9.)

mice [4] = assay: hEPO expression in mice after intravenous administration; assay type: in vivo
Protocol: Sample formulations of nanoparticle compositions including different lipids are generally first evaluated according to Luc expression in vivo. The activity of several such compositions was further evaluated using an mRNA encoding hEPO. Nanoparticle compositions including Compounds 6, 18, 25, 30, 108-112, 60, and 122, or MC3 were prepared according to Example 2.
as §2
Table 12 compares the nanoparticle compositions including compounds according to Formula (I), (IA), (II), (IIa), (IIb), (IIc), (IId) or (IIe) to the compositions including MC3 on the basis of expression and flux levels. […] Thus, these lipids may be useful in nanoparticle composition therapeutics. […]

mice [5] = assay: Luc expression (total flux) after intramuscular administration; assay type: in vivo; conditions: i.m., Luc, 6 h
mice [6] = assay: Luc expression (bioluminescence, total flux) after intravenous administration to mice; assay type: in vivo; conditions: Luc total flux (Table 3D)
How it was run: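 Lipid nanoparticle formulations carrying Luc mRNA were given intravenously to mice (n=6) at 0.5 mg/kg. Bioluminescence was imaged at 3, 6 and 24 h. Total flux was expressed as AUC relative to the standard MC3 formulation.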

[7] = nanoparticle composition lipid:DSPC:cholesterol:PEG-DMG 50:10:38.5:1.5 mol %, mRNA encoding Luc or hEPO (Table 1A)
[8] = nanoparticle composition 50:10:38.5:1.5 mol % (Table 1A)

SMILES | PDI [1] | Size (nm) [1, 7] | EE (%) [2, 8] | i.m. Lipid/MC3 0.01 mpk, Luc, 6h (mice [5]) | further results
CCCCC/C=C\C/C=C\CCCCCCCCN(CCO)CCCCCCCC(=O)OC(CCCCCCCC)CCCCCCCC [Compound 6, Heptadecan-9-yl 8-((2-hydroxyethyl)((9Z,12Z)-octadeca-9,12-dien-1-yl)amino)octanoate] | – | – | – | – | Size (nm) ([1]; hEPO mRNA, lipid:DSPC:Chol:PEG-DMG (50:10:38.5:1.5) (Table 10)): 70.5 nm; EE (%) ([2]; hEPO mRNA, (50:10:38.5:1.5) (Table 10)): 97.84%; IL-6 (mice [3]): 136.18; IP-10 (mice [3]): 316.01; Cytokine expression (pg/ml) IL-6 (6 h) (mice [3]; hEPO mRNA, 6 h): 10.15 pg/mL; Cytokine expression (pg/ml) IP-10 (6 h) (mice [3]; hEPO mRNA, 6 h): 116.66 pg/mL; hEPO concentrations compared with MC3 formulations at each time point (mice [4]; 0.5 mpk, 3, 6 and 24 hours): higher hEPO concentrations than MC3 formulations; hEPO expression (pg/ml) 3h (mice [4]; 0.5 mpk, 3 h): 2.31e+06 pg/mL; hEPO expression (pg/ml) 6 h (mice [4]; 0.5 mpk, 6 h): 3.17e+06 pg/mL; hEPO expression (pg/ml) 24 h (mice [4]; 0.5 mpk, 24 h): 1.11e+06 pg/mL
CCCCCCCCC(CCCCCCCC)OC(=O)CCCCCCCN(CCO)CCCC(=O)OC(CCCCC)CCCCCCCC (stereo not drawn) [Compound 71, Heptadecan-9-yl 8-((2-hydroxyethyl)(4-oxo-4-(tetradecan-6-yloxy)butyl)amino)octanoate] | 0.11 | 60.1 nm | 96.1% | – | –
CCCCCCCCCOC(=O)CCCCCCCN(CCCCCCCC(=O)OC(CCCCCCCC)CCCCCCCC)CCCNS(C)(=O)=O [Compound 109, Heptadecan-9-yl 8-((3-(methylsulfonamido)propyl)(8-(nonyloxy)-8-oxooctyl)amino)octanoate] | – | – | – | 3.6 | –
CCCCCCCCCOC(=O)CCCCCCCN(CCCCCCCC(=O)OC(CCCCCCCC)CCCCCCCC)CCCNC(=S)N(C)C [Compound 111, Heptadecan-9-yl 8-((3-(3,3-dimethylthioureido)propyl)(8-(nonyloxy)-8-oxooctyl)amino)octanoate] | 0.14 | 79.3 nm | – | 4.9 | –
CCCCCCCCCOC(=O)CCCCCCCN(CCO)CCCCCCC(=O)OCC(CCCCCCCC)CCCCCCCC [Compound 143, Nonyl 8-((2-hydroxyethyl)(7-((2-octyldecyl)oxy)-7-oxoheptyl)amino)octanoate] | 0.19 | 93.3 nm | 96.4% | – | IL-6 (mice [3]): 6.245; IP-10 (mice [3]): 209.63
CCCCCCCCCOC(=O)CCCCCCCN(CCCCCCCC(=O)OC(CCCCCCCC)CCCCCCCC)CCCN(C)S(C)(=O)=O [Compound 173, Heptadecan-9-yl 8-((3-(N-methylmethylsulfonamido)propyl)(8-(nonyloxy)-8-oxooctyl)amino)octanoate] | – | – | – | 0.6 | –

Second part, led by results:

PDI [1] | Size (nm) [1, 7] | EE (%) [2, 8] | SMILES | i.m. Lipid/MC3 0.01 mpk, Luc, 6h (mice [5]) | further results
0.096 | 69.6 nm | 96.43% | CCCCCCCCCOC(=O)CCCCCCCN(CCCCCCCC(=O)OC(CCCCCCCC)CCCCCCCC)C(C)CO (stereo not drawn) [Compound 157, Heptadecan-9-yl 8-((1-hydroxypropan-2-yl)(8-(nonyloxy)-8-oxooctyl)amino)octanoate] | – | AUC (p/s*h) (mice [6]): 2.481E+011 p/s*h
0.1 | 80.7 nm | 94.35% | CCCCCCCCCOC(=O)CCCCCCCN(CCCCCCCC(=O)OC(CCCCCCCC)CCCCCCCC)CCCN/C(=N/C#N)N(C)C [Compound 168, Heptadecan-9-yl (Z)-8-((3-(2-cyano-3,3-dimethylguanidino)propyl)(8-(nonyloxy)-8-oxooctyl)amino)octanoate] | – | –
0.18 | 75.4 nm | – | CCCCCCCCCOC(=O)CCCCCCCN(CCCCCCCC(=O)OC(CCCCCCCC)CCCCCCCC)CCCNc1c(N(C)C)c(=O)c1=O [Compound 169, Heptadecan-9-yl 8-((3-((2-(dimethylamino)-3,4-dioxocyclobut-1-en-1-yl)amino)propyl)(8-(nonyloxy)-8-oxooctyl)amino)octanoate] | 3.3 | –
0.12 | 71.7 nm | – | CCCCCCCCCOC(=O)CCCCCCCN(CCCCCCCC(=O)OC(CCCCCCCC)CCCCCCCC)CCCN/C(=C/[N+](=O)[O-])NC [Compound 170, Heptadecan-9-yl (E)-8-((3-((1-(methylamino)-2-nitrovinyl)amino)propyl)(8-(nonyloxy)-8-oxooctyl)amino)octanoate] | 5.3 | –

From US12404232B2, “Compounds and compositions for intracellular delivery of therapeutic agents” (ModernaTX, Inc., priority 2015, dated 2025)
